Results on 15 compounds are retold here after US8883763B2 (Universite Joseph Fourier, priority 2010, dated 2014).

Data set [1] deals with T1, PP1α (PP1CA) (Oryctolagus cuniculus, UniProt P62139).
T1 construct: purchased New England Biolabs P0754
The data set can be described thus: Protein phosphatase test (PP1 activity, DiFMUP fluorescent substrate). As to conditions: PP1CA at 80 mU, fluorescent substrate (50 μM), molecules from 50 μM to 50 nM; read-out: PP1 Inhibition IC50. The format is biochemical. In a few lines:
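PP1α (30 or 80 mU) in 100 mM Tris-HCl pH 7.5, 4 mM DTT, 0.2 mM EDTA, 0.5 mM MnCl2 was preincubated 15 min with compound (50 μM to 50 nM), then given 60 μM DiFMUP for 20 min at 37 °C. Phosphatase activity was read as fluorescence at 355-460 nm, three times in duplicate.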

Data set [2] relates to bovine brain tubulin. The data set can be described thus: In vitro tubulin polymerization test (turbidimetry at 350 nm). The class given is biochemical. As to conditions: molecules at 50 μM, calculated at t=3000 s, DMSO control = 100%. In a few lines:
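Bovine brain tubulin was assembled at 37 °C in BRB80 (80 mM K-PIPES pH 6.8, 1 mM MgCl2, 1 mM EGTA) with 1 mM GTP. The 50 μM tests used compounds at 50 μM, run in triplicate. Turbidity at 350 nm was read at t=3000 s and expressed relative to control taken as 100%.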

For data set [3], the system named is HeLa cells. In words: Indirect immunofluorescence: effect on HeLa cells (mitotic arrest, microtubule depolymerization). The class given is cell-based, human. Set-up: key to Effect on Hela at 25 μM / Effect on Hela at 100 μM / Effect on Hela at 50 and 100 μM / Effect on Hela at 50 μM: —: −: no activity on the cells at 25 μM (if there is an effect at high concentrations, this is specified in the table).; *: weak activity (MA and/or slight depolymerization of the MTs and/or slight inhibition of proliferation),; **: average activity (MA and/or moderate depolymerization of the MTs and/or moderate inhibition of proliferation),; ***: strong activity (MA and/or pronounced depolymerization of the MTs and/or pronounced inhibition of proliferation),; ****: very strong activity (MA and/or very pronounced depolymerization of the MTs and/or strong inhibition of proliferation). The note with it: 24 hours; for Effect on Hela at 25 μM: mitotic index and/or depolymerization of the MTs. In a few lines: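 HeLa cells exposed 24 h to compound (100 μM to 50 nM; primary series 1–10 μM), DMSO controls. PFA/glutaraldehyde-fixed cells immunostained for α-tubulin, actin (phalloidin) and DNA (Hoechst); fluorescence microscopy scored phenotypes and mitotic index, with mitotic index and/or MT depolymerization evaluated at 25 μM.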

The test system of data set [4] is HMEC cells. The data set can be described thus: Proliferation of HMEC cells (GI50). The format is cell-based. The note with it: Homo sapiens, 120 h, 50 μM to 1 nM for 5 days. The procedure, abridged: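 Cells seeded at 1,000/well (10% confluence) and exposed 5 days (120 h) to compound from 1 nM up to 50–100 μM. Live cells counted by Hoechst 33342 staining under fluorescence microscopy; GI50 is concentration halving proliferation versus control, mean of two triplicate experiments.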

T1 sequence (P62139 whole entry): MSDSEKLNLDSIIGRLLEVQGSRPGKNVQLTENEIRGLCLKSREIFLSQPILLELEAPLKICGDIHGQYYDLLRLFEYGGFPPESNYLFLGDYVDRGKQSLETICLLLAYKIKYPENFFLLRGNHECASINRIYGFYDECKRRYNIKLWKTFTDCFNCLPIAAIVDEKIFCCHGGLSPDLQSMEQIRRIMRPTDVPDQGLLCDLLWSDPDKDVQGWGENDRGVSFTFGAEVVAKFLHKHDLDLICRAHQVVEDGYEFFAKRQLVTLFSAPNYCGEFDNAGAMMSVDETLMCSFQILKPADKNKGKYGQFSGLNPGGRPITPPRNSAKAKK

As to `COc1ccc(-c2nc(SCc3ccccc3)c3cc(OC)ccc3c2[N+](=O)[O-])cc1` [Compound 21, 1-(Benzylthio)-7-methoxy-3-(4-methoxyphenyl)-4-nitroisoquinoline], the melting point (usually the temperature, or range, at which the solid turns liquid) was in the range of 148 to 150 °C. In addition, in data set [1], the IC50 (as a rule, the concentration needed to halve the response being measured) was in the range of 25 to 50 µM. Besides, the Tubulin polymerization inhibition entry in data set [2] is “+++ ((+++) signifies that the molecule induces tubulin assembly inhibition in vitro of more than 50% with respect to the DMSO control.)”. For the same compound, in data set [3], the “Effect on Hela at 25 μM” value is given as “—”. In addition, the 50% growth inhibitory concentration (GI50) (in general, the concentration at which growth is held to half of that of the control) in data set [4] is more than 50 µM.
`COc1ccc(-c2nc(NCc3ccccc3)c3cc(OC)ccc3c2[N+](=O)[O-])cc1` [Compound 22, N-Benzyl-N-[7-methoxy-3-(4-methoxyphenyl)-4-nitroisoquinoline-1-yl]-amine] showed a melting point of 199 to 201 °C. The IC50 in data set [1] was not above 9 µM. In addition, the Tubulin polymerization inhibition result in data set [2] was “+ ((+) signifies that the molecule induces tubulin assembly inhibition in vitro comprised between 6 and 25% of the DMSO control.)”. Also, the “Effect on Hela at 25 μM” value in data set [3] is recorded as “—”. Besides, in data set [4], the 50% growth inhibitory concentration (GI50) is more than 50 µM.
The compound `COc1ccc(-c2[nH]c(=O)c3cc(OC)ccc3c2N(C)C)cc1` [Compound 23, 4-(Dimethylamino)-7-methoxy-3-(4-methoxyphenyl)isoquinoline-1(2H)-one] registered a melting point of 183 to 185 °C. Besides, the IC50 in data set [1] is more than 50 µM. Further, the Tubulin polymerization inhibition result in data set [2] was “+ ((+) signifies that the molecule induces tubulin assembly inhibition in vitro comprised between 6 and 25% of the DMSO control.)”. In addition, the “Effect on Hela at 25 μM” value in data set [3] was “***”. The compound further showed a 50% growth inhibitory concentration (GI50) in data set [4] of 1 to 25 µM.
`COc1ccc(-c2[nH]c(=O)c3cc(OC)ccc3c2NC=O)cc1` [Compound 24, N-(7-Methoxy-3-(4-methoxyphenyl)-1-oxo-1,2-dihydroisoquinoline-4-yl)methanamide] showed a melting point of more than 270 °C. The IC50 in data set [1] is more than 50 µM. Besides, in data set [2], the Tubulin polymerization inhibition entry was “+ ((+) signifies that the molecule induces tubulin assembly inhibition in vitro comprised between 6 and 25% of the DMSO control.)”. In addition, the “Effect on Hela at 25 μM” value in data set [3] is “****”. For the same compound, the concentration for 50% growth inhibition (GI50) in data set [4] lay within 1 to 25 µM.
`COc1ccc(-c2[nH]c(=O)c3cc(OC)ccc3c2C=O)cc1` [Compound 25, 7-Methoxy-3-(4-methoxyphenyl)isoquinoline-1(2H)-one-4-carbaldehyde] came in with a melting point of 232 °C. In data set [1], the half-inhibitory concentration (IC50) is not below 50 µM. Moreover, in data set [2], the Tubulin polymerization inhibition entry was “+++ ((+++) signifies that the molecule induces tubulin assembly inhibition in vitro of more than 50% with respect to the DMSO control.)”. Moreover, in data set [3], the “Effect on Hela at 25 μM” value was “****”. The compound also returned a GI50 in data set [4] of 0.1 to 1 µM.
For `COc1ccc(-c2nc(Cl)c3cc(OC)ccc3c2Br)cc1` [Compound 26, 4-Bromo-1-chloro-7-methoxy-3-(4-methoxyphenyl)isoquinoline] the same measures were 164 to 166 °C, more than 50 µM, “— ((−) signifies that the molecule induces little or no tubulin assembly inhibition in vitro: 0+ or − −5% of the DMSO control.)”, “—” and more than 50 µM.
In the case of `COc1ccc(-c2nc(OC)c3cc(OC)ccc3c2Br)cc1` [Compound 27, 4-Bromo-1,7-Dimethoxy-3-(4-methoxyphenyl)isoquinoline], the melting point was in the range of 138 to 140 °C. Besides, the IC50 in data set [1] was more than 50 µM. For the same compound, the Tubulin polymerization inhibition result in data set [2] is “+ ((+) signifies that the molecule induces tubulin assembly inhibition in vitro comprised between 6 and 25% of the DMSO control.)”. Also, in data set [3], the “Effect on Hela at 25 μM” value is reported as “—”. In addition, in data set [4], the GI50 was 25 to 50 µM.
As for `C#CCn1c(-c2ccc(OC)cc2)c([N+](=O)[O-])c2ccc(OC)cc2c1=O` [Compound 28, 7-Methoxy-3-(4-methoxyphenyl)-4-nitro-2-(propargyl)isoquinolin-1(2H)-one], the melting point lay in the range of 162 to 164 °C. Besides, the IC50 in data set [1] was 25 to 50 µM. Also, the Tubulin polymerization inhibition result in data set [2] is “— ((−) signifies that the molecule induces little or no tubulin assembly inhibition in vitro: 0+ or − −5% of the DMSO control.)”. For the same compound, the “Effect on Hela at 25 μM” value in data set [3] was “—”. The “Effect on Hela at 50 and 100 μM” value in data set [3] (50 and 100 μM) was “**”. The same compound gave a concentration for 50% growth inhibition (GI50) in data set [4] of more than 50 µM.
Take `C#CCOc1nc(-c2ccc(OC)cc2)c([N+](=O)[O-])c2ccc(OC)cc12` [Compound 29, 7-Methoxy-3-(4-methoxyphenyl)-4-nitro-1-(prop-2ynyloxy)isoquinoline]: the melting point was 177 to 179 °C. The IC50 in data set [1] was not below 50 µM. The Tubulin polymerization inhibition entry in data set [2] is “+ ((+) signifies that the molecule induces tubulin assembly inhibition in vitro comprised between 6 and 25% of the DMSO control.)”. In addition, in data set [3], the “Effect on Hela at 25 μM” value is reported as “—”. In data set [4], the concentration for 50% growth inhibition (GI50) is more than 50 µM.
The compound `COc1ccc(-c2c([N+](=O)[O-])c3ccc(OC)cc3c(=O)n2CC#N)cc1` [Compound 30, 2-(7-Methoxy-3-(4-methoxyphenyl)-4-nitro-1-oxoisoquinolin-2(1H)-yl)ethanenitrile] came in with a melting point of 194 to 196 °C. Further, in data set [1], the IC50 is not below 50 µM. For the same compound, the Tubulin polymerization inhibition entry in data set [2] is “+ ((+) signifies that the molecule induces tubulin assembly inhibition in vitro comprised between 6 and 25% of the DMSO control.)”. The “Effect on Hela at 25 μM” value in data set [3] is reported as “—”. The GI50 in data set [4] is more than 50 µM.
Regarding `COc1ccc(-c2nc(OCC#N)c3cc(OC)ccc3c2[N+](=O)[O-])cc1` [Compound 31, 2-(7-Methoxy-3-(4-methoxyphenyl)-4-nitroisoquinolin-1-yloxy)ethanenitrile], the melting point was in the range of 192 to 194 °C. The IC50 in data set [1] is more than 50 µM. Besides, the Tubulin polymerization inhibition result in data set [2] is “++ ((++) signifies that the molecule induces tubulin assembly inhibition in vitro comprised between 26 and 50% of the DMSO control.)”. In addition, the “Effect on Hela at 25 μM” value in data set [3] is on record as “—”. Moreover, the GI50 in data set [4] was more than 50 µM.
`COc1ccc2cc(-c3ccc(Br)cc3)[nH]c(=O)c2c1` [Compound 32, 3-(4-Bromophenyl)-7-methoxyisoquinolin-1(2H)-one] yielded a melting point of more than 250 °C. Besides, the half-maximal inhibitory concentration (IC50) in data set [1] was in the range of 10 to 24 µM. Further, in data set [2], the Tubulin polymerization inhibition result is on record as “— ((−) signifies that the molecule induces little or no tubulin assembly inhibition in vitro: 0+ or − −5% of the DMSO control.)”. Further, the “Effect on Hela at 25 μM” value in data set [3] is “****”. Besides, the concentration for 50% growth inhibition (GI50) in data set [4] fell in the range of 0.1 to 1 µM.
The like results for `COc1ccc2cc(-c3ccc(C#C[Si](C)(C)C)cc3)[nH]c(=O)c2c1` [Compound 33, 7-Methoxy-3-(4-((trimethylsilyl)ethynyl)phenyl)isoquinolin-1(2H)-one] were, in that order, 133 to 135 °C, more than 50 µM, “— ((−) signifies that the molecule induces little or no tubulin assembly inhibition in vitro: 0+ or − −5% of the DMSO control.)”, “—” and 25 to 50 µM.
The compound `COc1ccc2c([N+](=O)[O-])c(-c3ccc(Br)cc3)[nH]c(=O)c2c1` [Compound 34, 3-(4-Bromophenyl)-7-methoxy-4-nitroisoquinolin-1(2H)-one] had a melting point of 222 to 224 °C. Moreover, in data set [1], the half-maximal inhibitory concentration (IC50) was in the range of 25 to 50 µM. In addition, the Tubulin polymerization inhibition result in data set [2] is recorded as “+++ ((+++) signifies that the molecule induces tubulin assembly inhibition in vitro of more than 50% with respect to the DMSO control.)”. Moreover, the “Effect on Hela at 25 μM” value in data set [3] is given as “***”. Moreover, the GI50 in data set [4] was not above 0.1 µM.
In turn, `COc1ccc2c([N+](=O)[O-])c(-c3ccc(C#C[Si](C)(C)C)cc3)[nH]c(=O)c2c1` [Compound 35, 7-Methoxy-4-nitro-3-(4-((trimethylsilyl)ethynyl)phenyl)isoquinolin-1(2H)-one] came in with a melting point of 178 to 180 °C. The IC50 in data set [1] lay in the range of 10 to 24 µM. In data set [2], the Tubulin polymerization inhibition entry was “— ((−) signifies that the molecule induces little or no tubulin assembly inhibition in vitro: 0+ or − −5% of the DMSO control.)”. In addition, the “Effect on Hela at 25 μM” value in data set [3] was “***”. In data set [4], this compound registered a GI50 not above 0.1 µM.
